Source: paper PMC11938010, “Positive Charge in an Antimalarial Compound Unlocks Broad-Spectrum Antibacterial Activity” (JACS Au, 2025)
In brackets after ≈: the same amount, converted by molar mass. Where two headings read alike, the source gives them in different places.

Experiments:
[1] = In vitro cytotoxicity by XTT assay; type: cell-based; conditions: human, human monocyte-derived macrophages (hMdM)
[2] = system: Staphylococcus aureus ssp. Aureus; test: In vitro antibacterial activity (MIC), S. aureus; type: cell-based; conditions: Staphylococcus aureus, read-out: Sa MIC95
[3] = system: Acinetobacter baumannii; test: In vitro antibacterial activity (growth inhibition, OD600), A. baumannii; type: cell-based; conditions: 50 μM compound, Table 1 and main text, read-out: Ab inh. at 50 μM
[4] = system: Pseudomonas aeruginosa PA14; test: In vitro antibacterial activity (growth inhibition, OD600), P. aeruginosa; type: cell-based; conditions: PA14, 50 μM compound, Table 1 and main text, read-out: PA14 inh. at 50 μM
[5] = system: Streptococcus pneumoniae (DSM20566); test: In vitro antibacterial activity (MIC), S. pneumoniae; type: cell-based; conditions: Streptococcus pneumoniae, DSM20566, read-out: Sp MIC95
[6] = system: Plasmodium falciparum NF54; test: P. falciparum in vitro drug sensitivity assay on asexual blood stage parasites ([3H]-hypoxanthine incorporation); type: cell-based; conditions: Plasmodium falciparum, NF54, Table 1 and main text; read-out: PfNF54 IC50
[7] = system: E. coli K12; test: In vitro antibacterial activity (growth inhibition, OD600), E. coli wild-type; type: cell-based; conditions: Escherichia coli, Table 1 and main text
[8] = system: Escherichia coli ∆tolC; test: microbe, parasite or virus in culture; type: cell-based; conditions: Escherichia coli
[9] = system: Mycobacterium tuberculosis (Mtb) strain H37Rv; test: microbe, parasite or virus in culture; type: cell-based; conditions: 168 h, 7 days, footnote b: not active at maximum solubility, read-out: MtbH37Rv MIC90
[10] = in vitro; conditions: human, HepG2 CC50, 48 h, MTT
[11] = Table S2, with standard deviation

| SMILES | CC90 at 24 h [1] | MIC ([2]; Table 1 and main text) | MIC [2, 11] | inhibition at 50 µM [3] | inhibition at 50 µM [4] | MIC ([5]; Table 1 and main text) | MIC [5, 11] | IC50 [6] | inhibition at 50 µM ([7]; K12, 50 μM compound, read-out: EcK12 inh. at 50 μM) | MIC ([8]; read-out: EcΔtolC MIC95) | MIC ([8]; read-out: Ec∆tolC MIC95 (µM)) | MIC90 [9] | CC50 [10] | inhibition at 50 µM ([7]; K12, read-out: EcK12 inh. at 50 μM, 50 μM compound) |
| --- | --- | --- | --- | --- | --- | --- | --- | --- | --- | --- | --- | --- | --- | --- |
| N=C(N)N1CCN(c2ccc(NC(=O)c3cc(-c4cc(Cl)ccc4O)[nH]n3)cc2C(F)(F)F)CC1 [Compound 12G, N-(4-(4-Carbamimidoylpiperazin-1-yl)-3-(trifluoromethyl)phenyl)-5-(5-chloro-2-hydroxyphenyl)-1H-pyrazole-3-carboxamide] | 32 µM | 2.4 µM (≈ 1.22 µg/mL) | 2.4 ± 0.3 µM (≈ 1.22 µg/mL) | 33% | < 10% | 31 µM (≈ 15.7 µg/mL) | 31 ± 6 µM (≈ 15.7 µg/mL) | 0.2 µM | 51% | 2.8 µM (≈ 1.42 µg/mL) | 2.8 ± 0.3 µM (≈ 1.42 µg/mL) | 4 µM (≈ 2.03 µg/mL) | 30 µM | – |
| N=C(N)N1CCN(c2cc(NC(=O)c3cc(-c4cc(Cl)ccc4O)[nH]n3)ccc2C(F)(F)F)CC1 [Compound 13G, N-(3-(4-Carbamimidoylpiperazin-1-yl)-4-(trifluoromethyl)phenyl)-5-(5-chloro-2-hydroxyphenyl)-1H-pyrazole-3-carboxamide] | > 32 µM | 2.5 µM (≈ 1.27 µg/mL) | 2.5 ± 0.3 µM (≈ 1.27 µg/mL) | ≥ 45% | 17% | 16 µM (≈ 8.13 µg/mL) | 16 ± 6 µM (≈ 8.13 µg/mL) | 0.5 µM | – | 5 µM (≈ 2.54 µg/mL) | 5 ± 2 µM (≈ 2.54 µg/mL) | 8 µM (≈ 4.06 µg/mL) | > 25 µM | ≥ 45% |
